From PubChem BioAssay (NCI)
“And” between values parts separate entries of the source, which are not always exact repeats. Equal entries are not always repeated.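 Each compound was tested at five concentrations against cells in 96-well plates for 48 hours. GI50: concentration for 50% inhibition of growth. TGI marks complete inhibition of growth.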

Assays:
Experiment in all cases: NCI-60 cell line screen, 48 h
A549 NSCLC = system: A549 NSCLC
HOP-18 NSCLC = system: HOP-18 NSCLC
KM20L2 colon = system: KM20L2 colon
LXFL 529 NSCLC = system: LXFL 529 NSCLC
SK-MEL-5 melanoma = system: SK-MEL-5 melanoma
SNB-78 CNS = system: SNB-78 CNS
HS 578T breast = system: HS 578T breast
MCF7 breast = system: MCF7 breast
MDA-MB-231 breast = system: MDA-MB-231 breast
T-47D breast = system: T-47D breast

`COc1ccc(NC(=O)C(=O)C2CNC(=O)NC2=O)c(OC)c1` (configuration not stated) showed a TGI (A549 NSCLC) of over 100 µM, a TGI (HOP-18 NSCLC) of over 100 µM and a TGI (KM20L2 colon) of over 100 µM. The TGI (LXFL 529 NSCLC) was over 100 µM, the TGI (SK-MEL-5 melanoma) was over 100 µM and the TGI (SNB-78 CNS) was over 100 µM.

For `CC(C)NCC(O)COC(=O)c1cccs1` (configuration not stated), the TGI (A549 NSCLC) was over 100 µM, the TGI (KM20L2 colon) was over 100 µM and the TGI (LXFL 529 NSCLC) was over 100 µM. For the same molecule, the TGI (SK-MEL-5 melanoma) was over 100 µM and the TGI (SNB-78 CNS) was over 100 µM.

Work on `NC1=C(Cl)C(=O)c2ccc(S(N)(=O)=O)cc2C1=O` yielded a GI50 (A549 NSCLC) of 0.16 µM, a TGI (A549 NSCLC) of 0.358 µM and a GI50 (HS 578T breast) of 0.126 µM. The GI50 (MCF7 breast) was 0.15 µM, the TGI (MCF7 breast) was 0.346 µM and the GI50 (MDA-MB-231 breast) was 0.332 µM. The TGI (MDA-MB-231 breast) was 2.7 µM, the GI50 (SK-MEL-5 melanoma) was 0.0304 µM and the TGI (SK-MEL-5 melanoma) was 0.0963 µM. The GI50 (T-47D breast) was 0.318 µM and the TGI (T-47D breast) was 1.2 µM.

Work on `CCOC(=O)/C(=C/c1ccc([N+](=O)[O-])cc1)C(=O)c1ccccc1` yielded a GI50 (A549 NSCLC) of 6.28 µM, a TGI (A549 NSCLC) of 20.6 µM and a GI50 (HS 578T breast) of 3.44 µM. For the same molecule, the TGI (HS 578T breast) was 12.8 µM, the GI50 (MCF7 breast) was 2.32 µM and the TGI (MCF7 breast) was 8.94 µM. The GI50 (MDA-MB-231 breast) was 2.34 µM, the TGI (MDA-MB-231 breast) was 5.24 µM and the GI50 (SK-MEL-5 melanoma) was 1.94 µM. For the same molecule, the TGI (SK-MEL-5 melanoma) was 3.62 µM, the GI50 (T-47D breast) was 2.64 µM and the TGI (T-47D breast) was 8.35 µM.

In the case of `N=C1N(c2ccccc2)C(=O)C23CCCC2C13N1CCOCC1` (configuration not stated), the TGI (A549 NSCLC) is reported as over 100 µM, the TGI (HOP-18 NSCLC) is reported as over 100 µM and the TGI (KM20L2 colon) is reported as over 100 µM. For the same molecule, the TGI (LXFL 529 NSCLC) was over 100 µM, the TGI (SK-MEL-5 melanoma) was over 100 µM and the TGI (SNB-78 CNS) was over 100 µM.

With `CC(=O)O[C@H]1C(=O)O[C@@H]2C[C@H]3C(C)=CC(=O)[C@@H](O)[C@]3(C)[C@H]3[C@@]4(O)OC[C@]32[C@@H]1[C@@H](C)[C@H]4O` the GI50 (A549 NSCLC) was 0.23 µM and 0.431 µM, the TGI (A549 NSCLC) was 3.32 µM and 3.93 µM and the TGI (HOP-18 NSCLC) was 1.53 µM. It also gave a TGI (HS 578T breast) of 0.19 µM, a TGI (KM20L2 colon) of 2.43 µM and a GI50 (MCF7 breast) of under 0.01 µM. For the same molecule, the TGI (MCF7 breast) was 0.0593 µM and 0.0543 µM, the TGI (MDA-MB-231 breast) was 0.399 µM and the GI50 (SK-MEL-5 melanoma) was under 0.01 µM. The TGI (SK-MEL-5 melanoma) was 0.0287 µM and 0.052 µM and the TGI (SNB-78 CNS) was 0.384 µM.

Molecule `Cc1cc(C)c(O)c(Cc2cccc(Cc3cc(C)cc(C)c3O)c2O)c1` has a TGI (A549 NSCLC) of over 100 µM, a TGI (HS 578T breast) of over 100 µM and a TGI (MCF7 breast) of over 100 µM. For the same molecule, the TGI (MDA-MB-231 breast) was over 100 µM, the TGI (SK-MEL-5 melanoma) was over 100 µM and the TGI (T-47D breast) was over 100 µM.

Molecule `CC1(C)OC(C(N)=O)=C(C(N)=O)O1` has a TGI (A549 NSCLC) of over 100 µM, a TGI (HOP-18 NSCLC) of over 100 µM and a TGI (KM20L2 colon) of over 100 µM. The TGI (LXFL 529 NSCLC) was over 100 µM.

With `CNNCc1ccc(C(=O)NC(C)C)cc1` the GI50 (A549 NSCLC) was over 500 µM, the TGI (A549 NSCLC) was over 500 µM and the GI50 (HOP-18 NSCLC) was over 500 µM. For the same molecule, the TGI (HOP-18 NSCLC) was 139 µM and > 500 µM, the TGI (HS 578T breast) was over 500 µM and the GI50 (KM20L2 colon) was over 500 µM. The TGI (KM20L2 colon) was over 500 µM, the TGI (LXFL 529 NSCLC) was over 500 µM and the TGI (MCF7 breast) was over 500 µM. The TGI (MDA-MB-231 breast) was over 500 µM, the GI50 (SK-MEL-5 melanoma) was over 500 µM and the TGI (SK-MEL-5 melanoma) was over 500 µM. It also gave a TGI (SNB-78 CNS) of over 500 µM and a TGI (T-47D breast) of over 500 µM.

For `NC(CNO)C(=O)O` (configuration not stated), the TGI (A549 NSCLC) was over 100 µM, the TGI (HS 578T breast) was over 100 µM and the TGI (MCF7 breast) was over 100 µM. For the same molecule, the TGI (MDA-MB-231 breast) was over 100 µM, the TGI (SK-MEL-5 melanoma) was over 100 µM and the TGI (T-47D breast) was over 100 µM.

In the case of `COC(=O)C(=O)C(C(=O)C(=O)Nc1ccc(Cl)cc1C)c1nc2ccc(C(=O)c3ccccc3)cc2[nH]c1=O` (configuration not stated), the TGI (A549 NSCLC) is reported as over 100 µM, the TGI (HOP-18 NSCLC) is reported as over 100 µM and the TGI (KM20L2 colon) is reported as over 100 µM. It also gave a TGI (LXFL 529 NSCLC) of over 100 µM and a TGI (SNB-78 CNS) of over 100 µM.

For `Cc1ccc([N+](=O)[O-])cc1NC(=O)C(=O)Cc1occc(=O)c1O`, the TGI (A549 NSCLC) was over 100 µM, the TGI (HOP-18 NSCLC) was over 100 µM and the TGI (KM20L2 colon) was over 100 µM. It also gave a TGI (SK-MEL-5 melanoma) of over 100 µM.

`COC(=O)C(C)NP(=O)(OCc1ccc(Cn2cnc3c(=O)[nH]c(N)nc32)cc1)Oc1ccccc1` (configuration not stated) gave a GI50 (A549 NSCLC) of over 100 µM, a TGI (A549 NSCLC) of over 100 µM and a GI50 (HS 578T breast) of over 100 µM. The TGI (HS 578T breast) was over 100 µM, the GI50 (MCF7 breast) was over 100 µM and the TGI (MCF7 breast) was over 100 µM. For the same molecule, the GI50 (MDA-MB-231 breast) was over 100 µM, the TGI (MDA-MB-231 breast) was over 100 µM and the GI50 (SK-MEL-5 melanoma) was over 100 µM. For the same molecule, the TGI (SK-MEL-5 melanoma) was over 100 µM, the GI50 (T-47D breast) was 34.6 µM and the TGI (T-47D breast) was over 100 µM.

In the case of `CCC(C)OC(=O)C1C2CCC(O2)C1C(=O)O` (configuration not stated), the TGI (A549 NSCLC) is reported as over 100 µM, the TGI (HOP-18 NSCLC) is reported as over 100 µM and the TGI (KM20L2 colon) is reported as over 63.5 µM. The TGI (LXFL 529 NSCLC) was over 100 µM, the TGI (SK-MEL-5 melanoma) was over 100 µM and the TGI (SNB-78 CNS) was over 100 µM.

For `C#CCOCn1cnc2c(=S)nc[nH]c21`, the TGI (A549 NSCLC) was over 100 µM, the TGI (KM20L2 colon) was over 100 µM and the TGI (LXFL 529 NSCLC) was over 100 µM. It also gave a TGI (SK-MEL-5 melanoma) of over 100 µM.

`O=C1/C(=C\C(Cl)=C/c2ccc([N+](=O)[O-])cc2)SC(=S)N1CCc1ccc(O)cc1` showed a GI50 (A549 NSCLC) of 1.6 µM, a TGI (A549 NSCLC) of 8.79 µM and a GI50 (HS 578T breast) of 0.354 µM. The TGI (HS 578T breast) was 2.04 µM, the GI50 (MCF7 breast) was 0.365 µM and the TGI (MCF7 breast) was 1.66 µM. It also gave a GI50 (MDA-MB-231 breast) of 0.449 µM, a TGI (MDA-MB-231 breast) of 2.03 µM and a GI50 (SK-MEL-5 melanoma) of 1.63 µM. The TGI (SK-MEL-5 melanoma) was 3.01 µM, the GI50 (T-47D breast) was 1.64 µM and the TGI (T-47D breast) was 4.66 µM.

Molecule `O=C1C(=O)c2ccccc2-c2ccccc21` has a GI50 (A549 NSCLC) of 2.48 µM, a TGI (A549 NSCLC) of 6.54 µM and a GI50 (HS 578T breast) of 3.14 µM. For the same molecule, the TGI (HS 578T breast) was 9.86 µM, the GI50 (MCF7 breast) was 1.67 µM and the TGI (MCF7 breast) was 3.8 µM. The GI50 (MDA-MB-231 breast) was 1.42 µM, the TGI (MDA-MB-231 breast) was 3.19 µM and the GI50 (SK-MEL-5 melanoma) was 1.39 µM. For the same molecule, the TGI (SK-MEL-5 melanoma) was 2.79 µM, the GI50 (T-47D breast) was 0.49 µM and the TGI (T-47D breast) was 2.72 µM.

Work on `CCOC(=O)c1c(C)nc2ccc(Cl)cc2c1-c1ccccc1` yielded a GI50 (A549 NSCLC) of 25.6 µM, a TGI (A549 NSCLC) of over 100 µM and a GI50 (HS 578T breast) of 19.6 µM. It also gave a TGI (HS 578T breast) of 52.1 µM, a GI50 (MCF7 breast) of 24 µM and a TGI (MCF7 breast) of 70.4 µM. It also gave a GI50 (MDA-MB-231 breast) of 17.1 µM, a TGI (MDA-MB-231 breast) of 38.4 µM and a GI50 (SK-MEL-5 melanoma) of 14.5 µM. The TGI (SK-MEL-5 melanoma) was 29 µM, the GI50 (T-47D breast) was 12.9 µM and the TGI (T-47D breast) was 47.8 µM.

Molecule `O=c1cc(-c2ccc(Cl)cc2)[nH]c2ncccc12` has a TGI (A549 NSCLC) of over 100 µM, a TGI (HS 578T breast) of over 100 µM and a TGI (MCF7 breast) of over 100 µM. The TGI (MDA-MB-231 breast) was over 100 µM, the GI50 (SK-MEL-5 melanoma) was 29 µM and the TGI (SK-MEL-5 melanoma) was over 100 µM. For the same molecule, the TGI (T-47D breast) was over 100 µM.

Work on `O=C1C(=O)N(C(=O)c2ccc(Cl)c(Cl)c2)c2ccc(Cl)cc21` yielded a TGI (A549 NSCLC) of over 100 µM, a TGI (HOP-18 NSCLC) of over 100 µM and a TGI (LXFL 529 NSCLC) of over 100 µM. It also gave a TGI (SK-MEL-5 melanoma) of over 100 µM and a TGI (SNB-78 CNS) of over 100 µM.

With `C=C[C@]1(C)CCC2=C(CCC3C2(C)CCC[C@]3(C)CO)C1` (some centres not stated) the TGI (A549 NSCLC) was over 100 µM, the TGI (HOP-18 NSCLC) was over 100 µM and the TGI (KM20L2 colon) was 42.3 µM. The TGI (LXFL 529 NSCLC) was over 100 µM, the TGI (SK-MEL-5 melanoma) was over 100 µM and the TGI (SNB-78 CNS) was over 100 µM.

With `COc1ccc(-c2cc(=O)c3c(OC)c(OC)c(OC)c(OC)c3o2)cc1OC` the TGI (A549 NSCLC) was over 100 µM, the TGI (HS 578T breast) was 95.3 µM and the TGI (MCF7 breast) was over 100 µM. For the same molecule, the TGI (MDA-MB-231 breast) was over 100 µM, the TGI (SK-MEL-5 melanoma) was over 100 µM and the TGI (T-47D breast) was 70.6 µM.
